In assay [1] the target is T1, human bradykinin receptor 1 (B1R) (Homo sapiens, UniProt P46663).
T1 construct: expressed in transfected cells; host or cells: CHO K1 cells
T1 sequence (P46663 1-353): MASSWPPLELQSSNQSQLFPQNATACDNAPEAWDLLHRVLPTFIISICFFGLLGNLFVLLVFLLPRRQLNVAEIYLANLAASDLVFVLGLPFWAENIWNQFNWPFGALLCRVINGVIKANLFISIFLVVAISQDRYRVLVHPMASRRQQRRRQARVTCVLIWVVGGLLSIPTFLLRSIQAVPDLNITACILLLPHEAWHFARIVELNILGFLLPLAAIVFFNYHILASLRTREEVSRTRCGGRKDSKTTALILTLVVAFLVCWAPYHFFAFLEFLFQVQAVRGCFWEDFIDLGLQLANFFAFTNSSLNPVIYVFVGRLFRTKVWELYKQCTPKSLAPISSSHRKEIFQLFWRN
Description: Functional study on the bradykinin receptor 1 (B1R), human: FLIPR Ca2+ influx assay. The format is cell-based. The following applies: test substance 10 μM; CHO K1 cells transfected with human B1R; Lys-Des-Arg9-bradykinin at EC80; Ca2+ influx (Fluo-4, FLIPR); read-out: B1R antagonism, human [10 μM] % inhibition. The text has this:
Functional Study on the Human Bradykinin Receptor 1 (B1R)
(§1) The agonistic or antagonistic action of substances can be determined on the bradykinin receptor 1 (B1R) of the species human and rat using the following assay. According to this assay, the Ca^2+ influx through the channel is quantified with the aid of a Ca^2+-sensitive dye (Fluo-4 type, Molecular Probes Europe BV, Leiden, Netherlands) using a Fluorescent Imaging Plate Reader (FLIPR, Molecular Devices, Sunnyvale, USA).
(§2) Chinese hamster ovary cells (CHO K1 cells) which have been stably transfected with the human B1R gene (hB1R cells) or with the B1R gene of the rat (rB1R cells) are used. For functional studies, the cells are plated out on black 96-well plates having a clear base (BD Biosciences, Heidelberg, Germany or Greiner, Frickenhausen, Germany) in a density of 20,000-35,000 cells/well. The cells are incubated overnight at 37° C. and with 5% CO2 in culture medium (hB1R cells: Nutrient Mixture Ham's F12, Gibco Invitrogen GmbH, Karlsruhe, Germany or DMEM, Sigma-Aldrich, Taufkirchen, Germany; rB1R cells: D-MEM/F12, Gibco Invitrogen GmbH, Karlsruhe, Germany), with 10 vol. % FBS (fetal bovine serum, Gibco Invitrogen GmbH, Karlsruhe, Germany or PAN Biotech GmbH, Aidenbach, Germany).
(§3) On the following day, the cells are loaded for 60 minutes at 37° C. with 2.13 μM Fluo-4 (Molecular Probes Europe BV, Leiden, Netherlands) in HBSS buffer (Hank's buffered saline solution, Gibco Invitrogen GmbH, Karlsruhe, Germany) with 2.5 mM probenecid (Sigma-Aldrich, Taufkirchen, Germany) and 10 mM HEPES (Sigma-Aldrich, Taufkirchen, Germany). The plates are then washed twice with HBSS buffer, and HBSS buffer additionally containing 0.1% BSA (bovine serum albumin; Sigma-Aldrich, Taufkirchen, Germany), 5.6 mM glucose and 0.05% gelatin (Merck KGaA, Darmstadt, Germany) is added to the plates. After incubation for a further 20 minutes at room temperature, the plates are inserted into the FLIPR for Ca^2+ measurement. Alternatively, washing is carried out with buffer A (15 mM HEPES, 80 mM NaCl, 5 mM KCl, 1.2 mM CaCl2, 0.7 mM MgSO4, 2 g/l glucose, 2.5 mM probenecid) followed by loading with buffer A with added 2.5 μM Fluo-4 and 0.025% Pluronic F127 (Sigma-Aldrich, Taufkirchen, Germany). The cells are then washed twice with buffer A and incubated for 30 minutes at room temperature with buffer A additionally containing 0.05% BSA and 0.05% gelatin and are then inserted into the FLIPR for Ca^2+ measurement.
(§4) The Ca^2+-dependent fluorescence is measured before and after the addition of substances (λex=488 nm, λem=540 nm). Quantification is carried out by measuring the highest fluorescence intensity (FC, fluorescence counts) over time.
(§5) The FLIPR protocol consists of two substance additions. Test substances (10 μM) are first pipetted onto the cells and the Ca^2+ influx is compared with the control (hB1R: Lys-Des-Arg^9-bradykinin>=0.5 nM; rB1R: Des-Arg^9-bradykinin 10 μM). This gives the activation in %, based on the Ca^2+ signal after addition of Lys-Des-Arg^9-bradykinin (>=0.5 nM) or Des-Arg^9-bradykinin (10 μM).
(§6) After 10-20 minutes' incubation, Lys-Des-Arg^9-bradykinin (hB1R) or Des-Arg^9-bradykinin (rB1R) is applied in the concentration of the EC80, and the influx of Ca^2+ is likewise determined.
(§7) Antagonists lead to suppression of the Ca^2+ influx. The % inhibition compared with the maximum achievable inhibition is calculated.
(§8) In order to determine the IC50 value, the substances are added in various concentrations. Duplicate or triplicate determinations (n=2 or n=3) are carried out, and these are repeated in at least one further independent experiment (N>=2).

The target of assay [2] is T2, bradykinin receptor 1 (B1R) of the rat (Rattus norvegicus, UniProt P97583).
T2 construct: expressed in transfected cells; host or cells: CHO K1 cells
T2 sequence (P97583 1-337): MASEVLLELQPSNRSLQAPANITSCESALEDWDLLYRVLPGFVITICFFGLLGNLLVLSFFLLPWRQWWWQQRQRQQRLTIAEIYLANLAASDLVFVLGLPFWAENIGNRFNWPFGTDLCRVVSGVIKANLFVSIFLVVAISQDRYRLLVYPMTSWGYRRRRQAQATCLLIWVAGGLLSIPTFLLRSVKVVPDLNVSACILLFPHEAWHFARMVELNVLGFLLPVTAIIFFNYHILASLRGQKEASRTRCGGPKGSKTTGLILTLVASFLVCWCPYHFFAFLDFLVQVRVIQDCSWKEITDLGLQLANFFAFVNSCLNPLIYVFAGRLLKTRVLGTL
The experiment in a line: Functional study on the bradykinin receptor 1 (B1R), rat: FLIPR Ca2+ influx assay. The format is cell-based. The settings on record: test substance 10 μM; CHO K1 cells transfected with rat B1R; Des-Arg9-bradykinin at EC80; Ca2+ influx (Fluo-4, FLIPR); read-out: B1R antagonism, rat [10 μM] % inhibition.
Excerpt: as §1, §2, §3, §4, §5, §6, §7, §8

This passage reports inhibition results from patent US8119633B2, “Substituted sulfonamide compounds” (Gruenenthal GmbH, priority 2007, dated 2012).

As to `CN(C)C(c1cccc(F)c1)C1CCC(NC(=O)CC2c3ccccc3CCN2S(=O)(=O)c2ccc(Cl)c(Cl)c2)CC1` (stereo not shown) [Example 26, 2-(2-(3,4-dichlorophenylsulfonyl)-1,2,3,4-tetrahydroisoquinolin-1-yl)-N-(4-((dimethylamino)(3-fluorophenyl)methyl)cyclohexyl)acetamide], the results for the inhibition at 10 µM in assay [1] and in assay [2] were 97.4% and 73%, respectively.

Consider `CN(C)C(c1ccc(F)cc1)C1CCC(NC(=O)CC2c3ccccc3CCN2S(=O)(=O)c2ccc(Cl)c(Cl)c2)CC1` (stereo not shown) [Example 27, 2-(2-(3,4-dichlorophenylsulfonyl)-1,2,3,4-tetrahydroisoquinolin-1-yl)-N-(4-((dimethylamino)(4-fluorophenyl)methyl)cyclohexyl)acetamide], for which the inhibition (in general, the change of the read-out against control, counted positive when it falls) at 10 µM in assay [1] worked out at 103%; in assay [2], 78%.

With `CN(C)C(c1cccc(F)c1)C1CCC(CNC(=O)CC2c3ccccc3CCN2S(=O)(=O)c2ccc(Cl)c(Cl)c2)CC1` (stereo not shown) [Example 28, 2-[2-(3,4-dichloro-benzenesulfonyl)-1,2,3,4-tetrahydro-isoquinolin-1-yl]-N-{4-[dimethylamino-(3-fluoro-phenyl)-methyl]-cyclohexylmethyl}-acetamide], the results for the inhibition at 10 µM in assay [1] and in assay [2] were 26.3% and 34%, respectively.

On to `CN(C)C(c1ccccc1)C1CCC(CNC(=O)CC2c3ccccc3CCN2S(=O)(=O)c2ccc(Cl)c(Cl)c2)CC1` (stereo not shown) [Example 29, 2-[2-(3,4-dichloro-benzenesulfonyl)-1,2,3,4-tetrahydro-isoquinolin-1-yl]-N-[4-(dimethylamino-phenyl-methyl)-cyclohexylmethyl]-acetamide], for which the inhibition at 10 µM in assay [1] worked out at 64.5%; in assay [2], 45%.

Consider `CN(C)C(CCc1ccccc1)C1CCC(CNC(=O)CC2c3ccccc3CCN2S(=O)(=O)c2ccc(Cl)c(Cl)c2)CC1` (stereo not shown) [Example 30, 2-[2-(3,4-dichloro-benzenesulfonyl)-1,2,3,4-tetrahydro-isoquinolin-1-yl]-N-[4-(1-dimethylamino-3-phenyl-propyl)-cyclohexylmethyl]-acetamide], for which the values for the inhibition at 10 µM in assay [1] and in assay [2] were 75.7% and 58%, respectively.

As to `CN(C)C(c1ccc(F)cc1)C1CCC(CNC(=O)CC2c3ccccc3CCN2S(=O)(=O)c2ccc(Cl)c(Cl)c2)CC1` (stereo not shown) [Example 31, 2-[2-(3,4-dichloro-benzenesulfonyl)-1,2,3,4-tetrahydro-isoquinolin-1-yl]-N-{4-[dimethylamino-(4-fluoro-phenyl)-methyl]-cyclohexylmethyl}-acetamide], the inhibition at 10 µM in assay [1] was determined as 54%; in assay [2] it was 48%.

On to `CN(C)C(c1ccc(Cl)cc1)C1CCC(CNC(=O)CC2c3ccccc3CCN2S(=O)(=O)c2ccc(Cl)c(Cl)c2)CC1` (stereo not shown) [Example 32, N-{4-[(4-chloro-phenyl)-dimethylamino-methyl]-cyclohexylmethyl}-2-[2-(3,4-dichloro-benzenesulfonyl)-1,2,3,4-tetrahydro-isoquinolin-1-yl]-acetamide], for which the values for the inhibition at 10 µM in assay [1] and in assay [2] were 10.7% and 15%, respectively.

Regarding `CN(C)C(c1ccc(Cl)cc1)C1CCC(CCNC(=O)CC2c3ccccc3CCN2S(=O)(=O)c2ccc(Cl)c(Cl)c2)CC1` (stereo not shown) [Example 33, N-(2-{4-[(4-chloro-phenyl)-dimethylamino-methyl]-cyclohexyl}-ethyl)-2-[2-(3,4-dichloro-benzenesulfonyl)-1,2,3,4-tetrahydro-isoquinolin-1-yl]-acetamide], the inhibition at 10 µM came out at 42.2% in assay [1] and 18% in assay [2].

With `CN(C)C(c1cccc(F)c1)C1CCC(CCNC(=O)CC2c3ccccc3CCN2S(=O)(=O)c2ccc(Cl)c(Cl)c2)CC1` (stereo not shown) [Example 34, 2-[2-(3,4-dichloro-benzenesulfonyl)-1,2,3,4-tetrahydro-isoquinolin-1-yl]-N-(2-{4-[dimethylamino-(3-fluoro-phenyl)-methyl]-cyclohexyl}-ethyl)-acetamide], the inhibition at 10 µM in assay [1] stood at 71.2%; in assay [2] it was 41%.

Consider `CN(C)C(c1ccc(F)cc1)C1CCC(CCNC(=O)CC2c3ccccc3CCN2S(=O)(=O)c2ccc(Cl)c(Cl)c2)CC1` (stereo not shown) [Example 35, 2-[2-(3,4-dichloro-benzenesulfonyl)-1,2,3,4-tetrahydro-isoquinolin-1-yl]-N-(2-{4-[dimethylamino-(4-fluoro-phenyl)-methyl]-cyclohexyl}-ethyl)-acetamide], for which the inhibition at 10 µM in assay [1] came out at 79.5%; in assay [2] it was 49%.

In the case of `CN(C)C(c1cccc(F)c1)C1CCC(NC(=O)c2ccccc2N(C)S(=O)(=O)c2ccc(Cl)c(Cl)c2)CC1` (stereo not shown) [Example 36, 2-[(3,4-dichloro-benzenesulfonyl)-methyl-amino]-N-{4-[dimethylamino-(3-fluoro-phenyl)-methyl]-cyclohexyl}-benzamide], the results for the inhibition at 10 µM in assay [1] and in assay [2] were 64.1% and 67%, respectively.

In the case of `CN(C)C(c1ccc(F)cc1)C1CCC(NC(=O)c2ccccc2N(C)S(=O)(=O)c2ccc(Cl)c(Cl)c2)CC1` (stereo not shown) [Example 37, 2-[(3,4-dichloro-benzenesulfonyl)-methyl-amino]-N-{4-[dimethylamino-(4-fluoro-phenyl)-methyl]-cyclohexyl}-benzamide], the inhibition at 10 µM was found to be 82.2% in assay [1] and 64% in assay [2].

As for `CN(C)C(c1ccccc1)C1CCC(CNC(=O)c2ccccc2N(C)S(=O)(=O)c2ccc(Cl)c(Cl)c2)CC1` (stereo not shown) [Example 38, 2-[(3,4-dichloro-benzenesulfonyl)-methyl-amino]-N-[4-(dimethylamino-phenylmethyl)-cyclohexylmethyl]-benzamide], the figures for the inhibition at 10 µM in assay [1] and in assay [2] were 17.9% and 15%, respectively.

Take `CN(C)C(CCc1ccccc1)C1CCC(CNC(=O)c2ccccc2N(C)S(=O)(=O)c2ccc(Cl)c(Cl)c2)CC1` (stereo not shown) [Example 39, 2-[(3,4-dichloro-benzenesulfonyl)-methyl-amino]-N-[4-(1-dimethylamino-3-phenyl-propyl)-cyclohexylmethyl]-benzamide]: the inhibition at 10 µM in assay [1] was 79.3%; in assay [2], 42%.
